Test results published in patent US20060100140A1, “Combination of a) n-{5-[4-(4-methyl-piperazino-methyl)-benzoylamido]2-methylphenyl}-4- (3-pyridyl)-2-pyrimidine-amine and b) a histone deacetylase inhibitor for the treatment of leukemia” (priority 2002, published 2006).

What was measured:
K562 cells = assay: Apoptosis by morphological analysis of Wright Giemsa-stained cytospin preparations; format: cell-based, human; conditions: K562; for effect of caspase inhibitor on Compound I/SAHA-induced apoptosis: Compound I + SAHA with 25 μM inhibitor
Description: (§1) Experimental Format: Logarithmically growing cells are placed in sterile plastic T-flasks (Corning, Corning, N.Y.) to which are added the designated drugs and the flasks replaced in the incubator for intervals. At the end of the incubation period, cells are transferred to sterile centrifuge tubes, pelleted by centrifugation at 400×g for 10 min at room temperature, and prepared for analysis as described below.
(§2) Assessment of Apoptosis: After drug exposures, cytocentrifuge preparations are stained with Wright-Giemsa and viewed by light microscopy to evaluate the extent of apoptosis (i.e., cell shrinkage, nuclear condensation, formation of apoptotic bodies, etc.) as described previously (Yu et al., Nat. Rev. Cancer 1:294-202). For these studies, the percentage of apoptotic cells is determined by evaluating ≧500 cells/condition in triplicate. To confirm the results of morphological analysis, Annexin V/PI staining is used. Annexin V/PI (BD PharMingen, San Diego, Calif.) analysis of cell death is carried out as per the manufacturer's instructions. In studies involving TNF and TNF soluble receptor, both compound are combined and maintained at room temperature 20 min prior to use. For these experiments 1-2×10^5 cells per condition are harvested. Analysis is carried out using a Becton-Dickinson FACScan cytofluorometer (Mansfield, Mass.). To further confirm the morphology results, TUNEL staining is used. For TUNEL staining, cytocentrifuge preparations are obtained and fixed with 4% formaldehyde. The slides are treated with acetic acid/ethanol (1:2), stained with terminal transferase reaction mixture containing 1× terminal transferase reaction buffer (0.25 units/μl terminal transferase, 2.5 mM CoCl2, and 2 pmol fluorescein-12-dUTM; Boehringer Mannheim, Indianapolis, Ind.), and visualized using fluorescence microscopy.

LAMA 84 cells = assay: Apoptosis by cytospin slides; format: cell-based, human; conditions: Table 6; LAMA 84; 24 hr; sodium butyrate (SB; 1 or 2 mM); Compound I concentration not given
Description: as §1, §2

CCCC(=O)[O-].[Na+] [SB, sodium butyrate]
Compound I + SB % of apoptotic cells (K562 cells; Table 6, 24 hr, sodium butyrate (SB; 1 or 2 mM), Compound I concentration not given): 5.1 ± 2.2% | Compound I + SB % of apoptotic cells (LAMA 84 cells): 6.4 ± 2.8%

IETD-fmk
effect of caspase inhibitor on Compound I/SAHA-induced apoptosis (K562 cells): minimally effective

COC(=O)CC(NC(=O)OC(C)(C)C)C(=O)CF (stereo not shown) [BOC-fmk]
effect of caspase inhibitor on Compound I/SAHA-induced apoptosis (K562 cells): markedly inhibited apoptosis
